Reference: patent US11632972B2, “S-nitrosothiol compounds and their combinations with nitrosamine blocking agents for safe food preservation” (YISSUM RESEARCH DEVELOPMENT COMPANY OF THE HEBREW …, priority 2017, dated 2023)

Tests used:
[1] = tested on: naturally occurring bacteria; assay: Aerobic colony count in smoked beef shoulder pastrami; conditions: pastrami stored at 4° C. for three months; amount equivalent to 150 ppm sodium nitrite; plates 30° C. 24 hr
Protocol: Aerobic colony count of naturally occurring bacteria in smoked beef shoulder pastrami: 5 gr of the pastrami manufactured in a meat factory as described above were homogenized in a sterile grinder with 45 ml of sterile saline, then further diluted with saline. The diluents were plated on BHI agar plates and incubated at 30° C. for 24 hr then colonies were counted and CFU calculated.

[2] = tested on: naturally occurring bacteria; assay: Aerobic colony count in ground beef shoulder; conditions: 2.5 mM preservative; for bacteria count (aerobic colony count): after 1 week of storage at 4° C.; for bacteria concentration (aerobic colony count): after 4 weeks at 4° C.
Protocol: 10 gr of ground beef shoulder was mixed with 1 ml (25 mM) aqueous solution of the tested preservative (Sodium nitrite, S-nitroso-cysteine and S-nitroso-N-acetylcysteine) or DDW for control and 1 ml of NaCl solution (10% w/v). The final concentrations were 2.5 mM preservative (where Kg meat=L) and 1% (w/w) NaCl. The meat was divided to 1 gr portions and placed in open vacuum bags, then heated in a water bath at 75° C. for 15 min and sealed by […] C100 at a vacuum of 8 mbar. The bags were transferred to 4° C. for cooling and storage. After time periods of 1 hr, 1 week and 4 weeks elapsed, the bags were opened in a hood and 1 gr of meat was homogenized in a sterile grinder with 9 ml of sterile saline, then the homogenate was diluted further with saline and the diluents were plated on BHI agar plates. The plates were incubated at 30° C. for 24 hours then colonies were counted and CFU calculated.

[3] = Formation of N-nitroso-N-methylaniline from N-methylaniline with nitrosilating agent (2.5 mM) in citrate buffer at 37° C.; conditions: 2.5 mM agent, 2.5 mM N-methylaniline, pH 6.2
Protocol: The HPLC separation was performed on a Merck/Hitachi HPLC system consisting of a LaChrom L 7100 pump and a LaChrom DAD L 7450 detector. The system was operated with a data processor working with a LaChrom interface D 7000 and the EZChrom Elite 3.3.1 software. The mixture was separated on a Kinetex EVO C18 column (250×4.6 mm, 5 μm) using a gradient elution system, solvent A was 5% acetonitrile in water (v/v) and B was acetonitrile. Gradient conditions were initial=0% B, 25 min=70% B and 30 min=100% B. The flow rate was constant at 1.0 mL min^−1. The injection loop volume was 20 μL, absorbance was monitored at 272 nm.
The experiment of Example 1 was repeated with a tenfold increase of concentration of the reactants. That is, reaction mixtures were prepared by mixing in citrate buffer, at pH=3.0 and at pH=6.2, N-methylaniline (2.5 mM) and NaCl (2.5 mM) together with an equimolar amount of the tested nitrosilating agent, used either alone or in combination with ascorbic acid, as set out below: […]

[4] = Effect on the color of the meat (Hunter L*, a*, b*, colorimeter); parameters: species or system beef; conditions: aerobic conditions, period of 24 h
Protocol: Nitrite is known to be responsible for the characteristic pink color associated with cured meat products and flavor stabilization. The color development and color stability of ground beef treated S-nitroso-cysteine and S-nitroso-N-acetylcysteine after heating to 72° C. was compared to the color of ground beef treated with nitrite. A portable colorimeter (X-rite) was used to measure Hunter color lightness, redness and yellowness (L*, a*, b*) values of ground beef samples treated with the different additives and heated in a microwave oven (Dow, S-Korea, at 800 W) to 72° C. in the center. The instrument was standardized using white and black standard plates.

SMILES | aerobic colony count (concentration of bacteria) [1] | bacteria count (aerobic colony count) [2] | bacteria concentration (aerobic colony count) [2] | kinetics of N-nitroso-methylaniline formation (UV absorbance at 270 nm versus time) [3] | color stability (ΔE*) over time [4]
CC(=O)N[C@@H](CSN=O)C(=O)O [S-nitroso-N-acetylcysteine] | 7*10^3 CFU/ml | ~2.0*10^2 cfu/ml | lower bacteria concentration | significantly lesser | remained stable
N[C@@H](CSN=O)C(=O)O [S-nitroso-cysteine, S-nitrosocysteine] |  | ~2.0*10^2 cfu/ml | lower bacteria concentration | reacts rapidly with N-methylaniline to produce progressively increasing amounts of nitrosamine | 
O=NO [sodium nitrite] | 8*10^3 CFU/ml | 5.8*10^3 cfu/ml | ~10^8 |  | decreased over time
